According to article PMC11971462, “Generation and validation of a novel multitarget small molecule in glioblastoma” (Cell Death & Disease, 2025):

Tested on: GNS166 cells
Assay: Label-free proteomics differential expression
Format: cell-based, human
Experimental: Proteomic studies were performed by the Proteomics Facility of the CIC bioGUNE by label-free relative quantification on nLC MS/MS. […] In both approaches, the top 20 enriched terms were plotted and the pathways were clustered using divisive hierarchical clustering based on pairwise Jaccard distances.

SMILES: C#CCN(Cc1cc2cc(OCCCN3CCCCC3)ccc2n1S(=O)(=O)c1ccccc1)C(=O)CCCCCCC(=O)NO [DDI]
- Direction TENS3_HUMAN (protein Q68CZ2): Down
- LogFC TENS3_HUMAN (protein Q68CZ2): -3.364
- LogFC LARP4_HUMAN (protein Q71RC2 GN=LARP4): 0.7689
- LogFC PEG10_HUMAN (protein Q86TG7 GN=PEG10): 3.16
- LogFC SETD3_HUMAN (protein Q86TU7 GN=SETD3): 0.5021
- Direction ACOT1_HUMAN (protein Q86TX2): Down
- LogFC ACOT1_HUMAN (protein Q86TX2): -1.83
- LogFC PABP2_HUMAN (protein Q86U42 GN=PABPN1): -1.1218
- Direction PB1_HUMAN (protein Q86U86): Down
- LogFC PB1_HUMAN (protein Q86U86): -2.078
- Direction PHLB1_HUMAN (protein Q86UU1): Down
- LogFC PHLB1_HUMAN (protein Q86UU1): -2.257
- Direction DTX2_HUMAN (protein Q86UW9): Down
- LogFC DTX2_HUMAN (protein Q86UW9): -1.305
- LogFC LUZP1_HUMAN (protein Q86V48 GN=LUZP1): 0.5884
- LogFC THOC4_HUMAN (protein Q86V81 GN=ALYREF): -0.9542
- Direction IQGA3_HUMAN (protein Q86VI3): Down
- LogFC IQGA3_HUMAN (protein Q86VI3): -2.742
- Direction MET16_HUMAN (protein Q86W50): Down
- LogFC MET16_HUMAN (protein Q86W50): -1.7557
- LogFC CCD25_HUMAN (protein Q86WR0 GN=CCDC25): 2.202
- LogFC NIT1_HUMAN (protein Q86X76 GN=NIT1): 0.9607
- Direction CNDG2_HUMAN (protein Q86XI2): Down
- LogFC CNDG2_HUMAN (protein Q86XI2): -2.11
- Direction ANKL2_HUMAN (protein Q86XL3): Down
- LogFC ANKL2_HUMAN (protein Q86XL3): -0.7885
- LogFC DDX42_HUMAN (protein Q86XP3 GN=DDX42): -0.6019
- Direction VRK2_HUMAN (protein Q86Y07): Down
- LogFC VRK2_HUMAN (protein Q86Y07): -1.564
- LogFC RAB43_HUMAN (protein Q86YS6 GN=RAB43): -1.528
- Direction RFT1_HUMAN (protein Q96AA3): Down
- LogFC RFT1_HUMAN (protein Q96AA3): -0.9928
- Direction TTC17_HUMAN (protein Q96AE7): Down
- LogFC TTC17_HUMAN (protein Q96AE7): -1.296
- LogFC PBIP1_HUMAN (protein Q96AQ6 GN=PBXIP1): 1.536
- LogFC SARAF_HUMAN (protein Q96BY9 GN=SARAF): 2.225
- LogFC ACSF2_HUMAN (protein Q96CM8 GN=ACSF2): 1.4396
- LogFC GCP3_HUMAN (protein Q96CW5 GN=TUBGCP3): -1.184
- LogFC RMXL1_HUMAN (protein Q96E39 GN=RBMXL1): 1.251
- LogFC SGTB_HUMAN (protein Q96EQ0 GN=SGTB): 0.9619
- Direction WDR34_HUMAN (protein Q96EX3): Down
- LogFC WDR34_HUMAN (protein Q96EX3): -2.769
- LogFC DYL2_HUMAN (protein Q96FJ2 GN=DYNLL2): 1.408
- Direction CERS2_HUMAN (protein Q96G23): Down
- LogFC CERS2_HUMAN (protein Q96G23): -1.352
- Direction AURKB_HUMAN (protein Q96GD4): Down
- LogFC AURKB_HUMAN (protein Q96GD4): -0.8936
- Direction TOE1_HUMAN (protein Q96GM8): Down
- LogFC TOE1_HUMAN (protein Q96GM8): -1.175
- Direction ITCH_HUMAN (protein Q96J02): Down
- LogFC ITCH_HUMAN (protein Q96J02): -0.7634
- Direction TOPK_HUMAN (protein Q96KB5): Down
- LogFC TOPK_HUMAN (protein Q96KB5): -2.0632
- Direction EHMT2_HUMAN (protein Q96KQ7): Down
- LogFC EHMT2_HUMAN (protein Q96KQ7): -1.8
- Direction EP400_HUMAN (protein Q96L91): Down
- LogFC EP400_HUMAN (protein Q96L91): -2.0331
- Direction TRI47_HUMAN (protein Q96LD4): Down
- LogFC TRI47_HUMAN (protein Q96LD4): -1.137
- LogFC FXL18_HUMAN (protein Q96ME1 GN=FBXL18): 0.7929
- LogFC DCBD2_HUMAN (protein Q96PD2 GN=DCBLD2): -0.7605
- LogFC NED4L_HUMAN (protein Q96PU5 GN=NEDD4L): 1.365
- LogFC S38A2_HUMAN (protein Q96QD8 GN=SLC38A2): 0.9305
- Direction MCCA_HUMAN (protein Q96RQ3): Down
- LogFC MCCA_HUMAN (protein Q96RQ3): -0.7659
- Direction INT14_HUMAN (protein Q96SY0): Down
- LogFC INT14_HUMAN (protein Q96SY0): -0.8896
- Direction RSF1_HUMAN (protein Q96T23): Down
- LogFC RSF1_HUMAN (protein Q96T23): -2.084
- Direction UHRF1_HUMAN (protein Q96T88): Down
- LogFC UHRF1_HUMAN (protein Q96T88): -2.206
- Direction VIGLN_HUMAN (protein Q00341): Down
- LogFC VIGLN_HUMAN (protein Q00341): -1.004
- Direction PAR14_HUMAN (protein Q460N5): Down
- LogFC PAR14_HUMAN (protein Q460N5): -1.711
- LogFC CDK5_HUMAN (protein Q00535 GN=CDK5): 1.129
- LogFC M17L2_HUMAN (protein Q567V2 GN=MPV17L2): 1.68
- LogFC PURA_HUMAN (protein Q00577 GN=PURA): 0.4477
- LogFC SFT2C_HUMAN (protein Q587I9 GN=SFT2D3): -1.885
- LogFC ACD11_HUMAN (protein Q709F0 GN=ACAD11): -0.7894
- LogFC CAP1_HUMAN (protein Q01518 GN=CAP1): 0.6335
- Direction OTUD4_HUMAN (protein Q01804): Down
- LogFC OTUD4_HUMAN (protein Q01804): -1.044
- Direction BDH_HUMAN (protein Q02338): Down
- LogFC BDH_HUMAN (protein Q02338): -0.9278
- LogFC DSC2_HUMAN (protein Q02487 GN=DSC2): 2.478
- LogFC AKA12_HUMAN (protein Q02952 GN=AKAP12): 2.896
- LogFC KIME_HUMAN (protein Q03426 GN=MVK): -0.3731
- Direction ERCC6_HUMAN (protein Q03468): Down
- LogFC ERCC6_HUMAN (protein Q03468): -0.8508
- Direction TAP1_HUMAN (protein Q03518): Down
- LogFC TAP1_HUMAN (protein Q03518): -0.8528
- Direction TAP2_HUMAN (protein Q03519): Down
- LogFC TAP2_HUMAN (protein Q03519): -0.8847
- Direction GLGB_HUMAN (protein Q04446): Down
- LogFC GLGB_HUMAN (protein Q04446): -0.6914
- Direction SRS11_HUMAN (protein Q05519): Down
- LogFC SRS11_HUMAN (protein Q05519): -0.4029
- Direction FOLC_HUMAN (protein Q05932): Down
- LogFC FOLC_HUMAN (protein Q05932): -1.856
- LogFC PUR1_HUMAN (protein Q06203 GN=PPAT): 0.9093
- LogFC GFPT1_HUMAN (protein Q06210 GN=GFPT1): -0.4508
- LogFC PRDX1_HUMAN (protein Q06830 GN=PRDX1): 1.081
- Direction B2CL1_HUMAN (protein Q07817): Down
- LogFC B2CL1_HUMAN (protein Q07817): -1.289
- Direction RHG01_HUMAN (protein Q07960): Down
- LogFC RHG01_HUMAN (protein Q07960): -0.6872
- Direction AHNK_HUMAN (protein Q09666): Down
- LogFC AHNK_HUMAN (protein Q09666): -0.5648
- Direction CPSF1_HUMAN (protein Q10570): Down
- LogFC CPSF1_HUMAN (protein Q10570): -0.5217
- LogFC SCRN1_HUMAN (protein Q12765 GN=SCRN1): -0.7259
- Direction CDC20_HUMAN (protein Q12834): Down
- LogFC CDC20_HUMAN (protein Q12834): -2.397
